According to publication PMC10844532, “The in vivo study on antioxidant activity of wendan decoction in treating hyperlipidemia: a pharmacokinetic-pharmacodynamic (PK-PD) model” (Frontiers in Pharmacology, 2024):
Read-outs that look alike come from different tables or passages of the source.

Tests used:
[1] = Plasma pharmacokinetics of 10 WDD components after gavage of WDD (LC-MS/MS, Phoenix NCA and compartment model); assay type: in vivo, SD rats; parameters: Tmax: unit: h; settings: for AUC(0-t) / Cmax / half-life / Tmax / t1/2: hyperlipidemia rat plasma, non-compartment, n = 6; for Model (optimal PK compartment model): chosen by AIC, Phoenix Model module, rats given WDD
Description: LPO values of all the rats were assessed prior to therapy, and utilized as the baseline. […] Thermo Scientific Hypersil C18 analytical column (particle size: 1.9 µm, length: 100 mm, and diameter: 2.1 mm) was employed. Column operational conditions were like so, column temperature: 30°C, autosampler temperature: 4°C, whereas the flow rate: 0.3 mL/min. Injection volume: 3 μL, and mobile phase: aqueous solution containing 0.1% formic acid aqueous solution (A) and acetonitrile (B). […] Electrospray ion source (ESI) was used for mass spectrometry detection and analysis, both in positive and negative ion patterns. Nitrogen was kept as both of the auxiliary and sheath gas. The capillary temperature was 345°C, the atomizer temperature was 350°C, and the electrospray voltage was 3800 V. The mass spectrometry data for the 10 compounds and the internal standard (IS) are shown in Table 1. After accurately measuring 100 μL of plasma, 10 μL of the QC solution or the IS solution was supplemented, and the blend was vortexed for 30 s. Afterward, 300 μL of acetonitrile (as protein precipitant) was added, vortexed for 1 min, and then centrifuged (10 min at 12000 r/min). Finally, the supernatant was taken and stored for testing. […] The dose, plasma concentration and time after administration were imported into the NCA (Noncompartmental Analysis) module of Phoenix 8.1 to obtain the pharmacokinetic parameters. The Phoenix Model module of Phoenix software was used to establish the atrioventricular model of the drug. Akaike Information Criterion (AIC) rules were used to calculate the optimal PK model.

HDL = test system: HDL; parameters: method as in Eu et al., 2010; settings: ref Eu et al., 2010; cited from earlier work
hyperlipidemia hamsters = test system: hyperlipidemia hamsters; parameters: method as in Shi et al., 2023; settings: compared with the control group ref Shi et al., 2023; cited from earlier work
[2] = test system: experimental hyperlipidemia rat models; parameters: method as in Kumar et al., 2020; settings: experimental hyperlipidemia rat models ref Kumar et al., 2020; cited from earlier work
hyperlipidemia mice = test system: hyperlipidemia mice; parameters: method as in Yu et al., 2022; settings: hyperlipidemia mice ref Yu et al., 2022; cited from earlier work
plasma lipids = test system: plasma lipids; parameters: method as in Sahebkar, 2017; settings: randomized controlled trials ref Sahebkar, 2017, cited from earlier work
[3] = Sprague-Dawley, po, HTG: WDD 6.6 g/100 g by gavage
[4] = Sprague-Dawley, po, LTG: WDD 2.2 g/100 g by gavage
[5] = Sprague-Dawley, rat, plasma, po, 2.2 g/100 g, LTG: WDD 2.2 g/100 g by gavage
[6] = Sprague-Dawley, rat, plasma, po, 2.2 g/100 g, LTG: WDD 2.2 g/100 g by gavage, read-out: Tmax
[7] = Sprague-Dawley, rat, plasma, po, 6.6 g/100 g, HTG: WDD 6.6 g/100 g by gavage
[8] = Sprague-Dawley, rat, plasma, po, 6.6 g/100 g, HTG: WDD 6.6 g/100 g by gavage, read-out: Tmax

For `CC1(C)[C@@H](O)CC[C@]2(C)[C@H]3C(=O)C=C4[C@@H]5C[C@@](C)(C(=O)O)CC[C@]5(C)CC[C@@]4(C)[C@]3(C)CC[C@@H]12` [Glycyrrhetinic acid], the AUC(0-t) [1, 3] was 10200 ± 298 ng·h/mL, the Cmax [1, 3] was 3280 ± 475 ng/mL and the AUC(0-t) [1, 4] was 8180 ± 500 ng·h/mL. The Cmax [1, 4] was 2940 ± 220 ng/mL, the half-life [1, 5] was 2.3 ± 0.16 h and the Tmax [1, 6] was 0.75 h. The half-life [1, 7] was 6.02 ± 0.92 h, the Tmax [1, 8] was 0.54 ± 0.21 h and the “bioavailability (from largest AUC in rat plasma)” value ([1]; both doses of WDD) was “good bioavailability”.
For `CC1(C)[C@@H](O[C@H]2O[C@H](C(=O)O)[C@@H](O)[C@H](O)[C@H]2O[C@@H]2O[C@H](C(=O)O)[C@@H](O)[C@H](O)[C@H]2O)CC[C@]2(C)[C@H]3C(=O)C=C4[C@@H]5C[C@@](C)(C(=O)O)CC[C@]5(C)CC[C@@]4(C)[C@]3(C)CC[C@@H]12` [Glycyrrhizic acid], the HDL (HDL) is given as “can increase HDL”, the AUC(0-t) [1, 3] is given as 128 ± 5.67 ng·h/mL and the Cmax [1, 3] is given as 45.1 ± 2.3 ng/mL. For the same compound, the AUC(0-t) [1, 4] was 104 ± 5.97 ng·h/mL, the Cmax [1, 4] was 20.6 ± 2.16 ng/mL and the half-life [1, 5] was 10.8 ± 3.88 h. It also gave a Tmax [1, 6] of 1.5 h, a half-life [1, 7] of 15.5 ± 7.44 h and a Tmax [1, 8] of 0.25 h. For the same compound, the “Model (optimal PK compartment model)” value [1] was “One-Compartment Model”.
In the case of `COc1ccc([C@@H]2CC(=O)c3c(O)cc(O)cc3O2)cc1O` [Hesperetin], the “body weight, obesity index, serum TC, TG, liver TC, TG and free fatty acid levels” value (hyperlipidemia hamsters) is given as “significantly decreased”, the Tmax ([1]; HTG: WDD 6.6 g/100 g by gavage) is given as 0.67 ± 0.17 h and the t1/2 ([1]; HTG: WDD 6.6 g/100 g by gavage) is given as 6.24 ± 0.36 h. The Tmax ([1]; HTG: WDD 6.6 g/100 g by gavage, listed as hesperetin) was 0.25 h, the AUC(0-t) [1, 3] was 3890 ± 147 ng·h/mL and the Cmax [1, 3] was 607 ± 130 ng/mL. The AUC(0-t) [1, 4] was 1030 ± 23.8 ng·h/mL, the Cmax [1, 4] was 223 ± 8.19 ng/mL and the half-life [1, 5] was 5.88 ± 3.39 h. The Tmax [1, 6] was 1.42 ± 0.92 h, the half-life [1, 7] was 3.21 h and the “Model (optimal PK compartment model)” value [1] was “One-Compartment Model”.
In the case of `COc1ccc([C@@H]2CC(=O)c3c(O)cc(O[C@@H]4O[C@H](CO[C@@H]5O[C@@H](C)[C@H](O)[C@@H](O)[C@H]5O)[C@@H](O)[C@H](O)[C@H]4O)cc3O2)cc1O` [Hesperidin], the altered redox homeostasis [2] is listed as “can reduce altered redox homeostasis”, the AUC(0-t) [1, 3] is listed as 439 ± 13.3 ng·h/mL and the Cmax [1, 3] is listed as 194 ± 24.3 ng/mL. For the same compound, the AUC(0-t) [1, 4] was 172 ± 3.26 ng·h/mL, the Cmax [1, 4] was 34.6 ± 3.22 ng/mL and the half-life [1, 5] was 12.1 ± 5.52 h. The Tmax [1, 6] was 0.67 ± 0.42 h, the half-life [1, 7] was 4.19 ± 0.17 h and the Tmax [1, 8] was 0.75 h. The “Model (optimal PK compartment model)” value [1] was “One-Compartment Model”.
In the case of `O=C(/C=C/c1ccc(O)cc1)c1ccc(O)cc1O` [Isoliquiritigenin], the Tmax ([1]; HTG: WDD 6.6 g/100 g by gavage) is reported as 0.79 ± 0.21 h, the Tmax ([1]; HTG: WDD 6.6 g/100 g by gavage, listed as isoliquiritigenin) is reported as 0.25 h and the AUC(0-t) [1, 3] is reported as 54.9 ± 2.07 ng·h/mL. It also gave a Cmax [1, 3] of 17.8 ± 3.31 ng/mL, an AUC(0-t) [1, 4] of 48.5 ± 0.82 ng·h/mL and a Cmax [1, 4] of 16.2 ± 2.35 ng/mL. For the same compound, the half-life [1, 5] was 27.4 ± 4.66 h, the Tmax [1, 6] was 0.5 h and the half-life [1, 7] was 14.6 ± 9 h.
In the case of `O=C1C[C@@H](c2ccc(O)cc2)Oc2cc(O)cc(O)c21` [Naringenin], the AUC(0-t) [1, 3] is reported as 595 ± 15.4 ng·h/mL, the Cmax [1, 3] is reported as 139 ± 10.6 ng/mL and the AUC(0-t) [1, 4] is reported as 587 ± 14.3 ng·h/mL. It also gave a Cmax [1, 4] of 110 ± 6.8 ng/mL, a half-life [1, 5] of 12.5 ± 4.08 h and a Tmax [1, 6] of 0.75 h. The half-life [1, 7] was 11.7 ± 1.94 h, the Tmax [1, 8] was 0.75 h and the “Model (optimal PK compartment model)” value [1] was “One-Compartment Model”.
For `C[C@@H]1O[C@@H](O[C@H]2[C@H](Oc3cc(O)c4c(c3)O[C@H](c3ccc(O)cc3)CC4=O)O[C@H](CO)[C@@H](O)[C@@H]2O)[C@H](O)[C@H](O)[C@H]1O` [Naringin], the “effect on reducing lipids and protecting liver” value (hyperlipidemia mice) is given as “strong effect on reducing lipids and protecting liver”, the AUC(0-t) [1, 3] is given as 713 ± 46.4 ng·h/mL and the Cmax [1, 3] is given as 575 ± 17.6 ng/mL. It also gave an AUC(0-t) [1, 4] of 210 ± 12.5 ng·h/mL, a Cmax [1, 4] of 36.8 ± 4.99 ng/mL and a half-life [1, 5] of 6.13 ± 0.94 h. It also gave a Tmax [1, 6] of 0.54 ± 0.21 h, a half-life [1, 7] of 5 ± 1.27 h and a Tmax [1, 8] of 0.25 h. The “Model (optimal PK compartment model)” value [1] was “Two-Compartment Model”.
In the case of `O=c1c(O)c(-c2ccc(O)c(O)c2)oc2cc(O)cc(O)c12` [Quercetin], the triglycerides (plasma lipids; doses above 50 mg/day) is given as “significant reduction”, the “effect on plasma lipids” value (plasma lipids; supplementation) is given as “does not have any clinically relevant effect” and the t1/2 ([1]; HTG: WDD 6.6 g/100 g by gavage) is given as 7.75 ± 12.99 h. The Tmax ([1]; LTG: WDD 2.2 g/100 g by gavage) was 1.00 ± 0.00 h, the AUC(0-t) [1, 3] was 370 ± 14.7 ng·h/mL and the Cmax [1, 3] was 115 ± 4.83 ng/mL. It also gave an AUC(0-t) [1, 4] of 212 ± 9.39 ng·h/mL, a Cmax [1, 4] of 98.4 ± 8.03 ng/mL and a half-life [1, 5] of 31.1 ± 41.4 h. The Tmax [1, 8] was 0.75 h and the “Model (optimal PK compartment model)” value [1] was “Two-Compartment Model”.
With `COc1ccc(-c2cc(=O)c3c(OC)c(OC)c(OC)c(OC)c3o2)cc1` [Tangeretin] the AUC(0-t) [1, 3] was 22.4 ± 0.89 ng·h/mL, the Cmax [1, 3] was 25.9 ± 2.98 ng/mL and the AUC(0-t) [1, 4] was 10.8 ± 0.32 ng·h/mL. For the same compound, the Cmax [1, 4] was 6.8 ± 0.46 ng/mL, the half-life [1, 5] was 8.83 ± 4.57 h and the Tmax [1, 6] was 0.5 h. For the same compound, the half-life [1, 7] was 3.21 ± 0.89 h, the Tmax [1, 8] was 0.38 ± 0.13 h and the “Model (optimal PK compartment model)” value [1] was “Two-Compartment Model”.
Work on `C[n+]1cccc(C(=O)[O-])c1` [Trigonelline] yielded an AUC(0-t) [1, 3] of 6010 ± 96.4 ng·h/mL, a Cmax [1, 3] of 537 ± 7.69 ng/mL and an AUC(0-t) [1, 4] of 3560 ± 300 ng·h/mL. The Cmax [1, 4] was 388 ± 25.8 ng/mL, the half-life [1, 5] was 12.2 ± 1.65 h and the Tmax [1, 6] was 1.5 h. The half-life [1, 7] was 11.8 ± 1.81 h, the Tmax [1, 8] was 2.67 ± 0.33 h and the “Model (optimal PK compartment model)” value [1] was “Two-Compartment Model”.
